≈ marks a conversion by molar mass, not a printed value.
Assays:
Format in all cases: cell-based
[1] = test system: Staphylococcus aureus ATCC 25923; test: Antibacterial assay (CLSI), S. aureus; design: key to MIC, Staphylococcus aureus ATCC 25923: inactive: Inactive at >128 μg/mL; conditions: Inactive at >128 μg/mL; for MIC: Staphylococcus aureus, ATCC25923
Experimental: (§1) Five microorganism cultures (Methicillin resistant S. aureus DMST 20654, S. aureus ATCC 25923, S. sonnei ATCC 11060, B. subtilis ATCC 6633, and B. cereus ATCC 11778) were used. The experiments were performed at the Department of Microbiology, Faculty of Science, Khon Kaen University, Thailand. The antibacterial assay was performed as recommended by the Clinical and Laboratory Standards Institute. The standard drugs kanamycin and chloramphenicol were used as positive controls.

[2] = test system: Bacillus cereus ATCC 11778; test: Antibacterial assay (CLSI), B. cereus; design: key to MIC, Bacillus cereus ATCC 11778: inactive: Inactive at >128 μg/mL; conditions: Inactive at >128 μg/mL; for MIC: Bacillus cereus, ATCC11778
Experimental: as §1

[3] = test system: Bacillus subtilis ATCC 6633; test: Antibacterial assay (CLSI), B. subtilis; design: key to MIC, Bacillus subtilis ATCC 6633: inactive: Inactive at >128 μg/mL; conditions: Inactive at >128 μg/mL; for MIC: Bacillus subtilis, ATCC6633
Experimental: as §1

[4] = test system: Methicillin Resistant Staphylococcus aureus DMST 20654; test: Antibacterial assay (CLSI), MRSA; design: key to MIC, Methicillin Resistant Staphylococcus aureus DMST 20654: inactive: Inactive at >128 μg/mL; conditions: Inactive at >128 μg/mL; for MIC: Staphylococcus aureus
Experimental: as §1

[5] = test system: A549 human lung carcinoma cell line; test: MTT anti-proliferative assay, A549; conditions: Mean ± S.D. (n = 3)
Experimental: (§2) The anti-proliferative effect on cancer cells was evaluated by MTT (3-(4,5-dimethylthiazol-2-yl)-2,5-diphenyltetrazolium bromide) assay. Cells (8 × 10^3 cell/well) were seeded onto 96-well plates and incubated for 24 h to allow adherence. After 24 h, the cells were exposed to increasing concentrations (3.12, 6.25, 12.5, 25, 50, and 100 μg/mL) of pure metabolites in a mixture of DMSO and ethanol (1:1) for 72 h. Control groups were treated with a mixture of DMSO and ethanol (1:1). After the indicated time, the medium was replaced with 110 μL of fresh medium containing MTT (0.5 mg/mL in PBS) (Sigma Chemical Co., St Louis, MO, USA) and incubated for 2 h. The formazan formed after conversion of MTT was dissolved in DMSO. The absorbance of formazan was measured with a microplate reader (Bio-Rad Laboratories, Hercules, CA, USA) at the wavelength of 550 nm with a reference wavelength of 655 nm. The percentage of viable cells which corresponds to the production of formazan was calculated using the following formula [19]. %cell viability = [Sample (A550 - […])/Control (A550 - […])] × 100(1)

HT29 human colon cancer = test: MTT anti-proliferative assay, HT29; conditions: Mean ± S.D. (n = 3)
Experimental: as §2

[6] = test system: HeLa human cervical cancer; test: MTT anti-proliferative assay, HeLa; conditions: 72 h, Mean ± S.D. (n = 3)
Experimental: as §2

[7] = test system: HCT-116 human colon cancer; test: MTT anti-proliferative assay, HCT-116; conditions: Mean ± S.D. (n = 3)
Experimental: as §2

Vero cells = test: MTT cytotoxicity assay, Vero cells; conditions: 72 h, Mean ± S.D. (n = 3)
Experimental: as §2

| Structure (SMILES) | MIC [1] | MIC [2] | MIC [3] | MIC [4] | IC50 ([5]; Homo sapiens, A549, 72 h) | IC50 (HT29 human colon cancer; Homo sapiens, HT-29, 72 h) | IC50 ([6]; Homo sapiens, HeLa) | IC50 ([7]; Homo sapiens, HCT-116, 72 h) | IC50 (Vero cells; Chlorocebus sabaeus, Vero) | MIC, Bacillus cereus ATCC 11778 [2] | MIC, Bacillus subtilis ATCC 6633 [3] | MIC, Methicillin Resistant Staphylococcus aureus DMST 20654 [4] | IC50, Vero Cells (Vero cells) | MIC, Staphylococcus aureus ATCC 25923 [1] | IC50 ([5]; 72 h) | IC50 (HT29 human colon cancer; 72 h) | IC50 [6] | IC50 ([7]; 72 h) | IC50 (Vero cells) |
| --- | --- | --- | --- | --- | --- | --- | --- | --- | --- | --- | --- | --- | --- | --- | --- | --- | --- | --- | --- |
| O=C(N[C@H](CO)[C@H](O)c1ccc([N+](=O)[O-])cc1)C(Cl)Cl [Chloramphenicol, reference compound] | 8 µg/mL (≈ 24.8 µM) | 4 µg/mL (≈ 12.4 µM) | 4 µg/mL (≈ 12.4 µM) | 8 µg/mL (≈ 24.8 µM) |  |  |  |  |  |  |  |  |  |  |  |  |  |  |  |
| CC1(C)CCCC2(C)C1C(O)CC1(C)C3CCc4cocc4C3(C)CCC21 (centres unmarked) [Compound 1, Nambiscalarane B] | 128 µg/mL (≈ 345 µM) |  |  |  | 24.3 ± 7.56 µM | 22.71 ± 0.16 µM | 40.8 ± 0.73 µM | 20.3 ± 3.13 µM | > 100 µM | inactive | inactive | inactive |  |  |  |  |  |  |  |
| CC(=O)OC1CC2(C)C3CCc4cocc4C3(C)CC(OC(=O)CC(=O)O)C2C2(C)CCCC(C)(C)C12 (centres unmarked) [Compound 2, Nambiscalarane C] | 128 µg/mL (≈ 249 µM) | 32 µg/mL (≈ 62.2 µM) | 32 µg/mL (≈ 62.2 µM) | 128 µg/mL (≈ 249 µM) | 85 ± 10.2 µM | 33 ± 1.63 µM | 73.2 ± 5.37 µM | 14.3 ± 0.56 µM | > 100 µM |  |  |  |  |  |  |  |  |  |  |
| CC(=O)OC1CC2(C)C3CCc4cocc4C3(C)CC(OC(=O)CC(C)=CC(=O)O)C2C2(C)CCCC(C)(C)C12 (centres unmarked) [Compound 3, Nambiscalarane D] |  | 32 µg/mL (≈ 57.7 µM) | 16 µg/mL (≈ 28.8 µM) |  | 25 ± 1.59 µM | 20.8 ± 0.63 µM | 21.1 ± 1.66 µM | 21.4 ± 1.14 µM | 70.2 ± 8.23 µM |  |  | inactive | no cytotoxicity | inactive |  |  |  |  |  |
| CC(=CC(=O)OC1CC2(C)c3cocc3CCC2C2(C)CC(O)C3C(C)(C)CCCC3(C)C12)CC(=O)O (centres unmarked) [Compound 4, Nambiscalarane E] | 128 µg/mL (≈ 250 µM) |  |  |  | 22.9 ± 1.99 µM | 19.6 ± 2.32 µM | 23.7 ± 0.51 µM | 13.4 ± 0.39 µM | > 100 µM | inactive | inactive | inactive |  |  |  |  |  |  |  |
| CC(=O)OC1CC2(C)C3CCC4=C(COC4=O)C3(C)CC(OC(=O)C=C(C)CC(=O)O)C2C2(C)CCCC(C)(C)C12 (centres unmarked) [Compound 5, Nambiscalarane F] | 16 µg/mL (≈ 28 µM) | 128 µg/mL (≈ 224 µM) | 128 µg/mL (≈ 224 µM) |  | 99.14 ± 0.36 µM | 54.5 ± 5.93 µM | 72.9 ± 5.23 µM | 32.7 ± 2.37 µM | > 100 µM |  |  | inactive | no cytotoxicity |  |  |  |  |  |  |
| CC(=O)OC1CC2(C)C3CCC4=C(COC4=O)C3(C)CC(OC(=O)CC(C)=CC(=O)O)C2C2(C)CCCC(C)(C)C12 (centres unmarked) [Compound 6, Nambiscalarane G] | 64 µg/mL (≈ 112 µM) | 128 µg/mL (≈ 224 µM) |  |  | > 100 µM | 78.2 ± 4.28 µM | 45.9 ± 2.77 µM | 16.5 ± 2.79 µM | > 100 µM |  | inactive | inactive |  |  |  |  |  |  |  |
| CC(=O)OC1CC2(C)C3CCC4=C(C(O)OC4=O)C3(C)CC(OC(=O)C=C(C)CC(=O)O)C2C2(C)CCCC(C)(C)C12 (centres unmarked) [Compound 7, Nambiscalarane H] |  | 64 µg/mL (≈ 109 µM) | 64 µg/mL (≈ 109 µM) |  | > 100 µM | > 100 µM | > 100 µM | > 100 µM | > 100 µM |  |  | inactive | no cytotoxicity | inactive |  |  |  |  |  |
| CC(=O)O[C@H]1C[C@]2(C)[C@H]([C@H](OC(=O)/C=C(\C)CC(=O)O)C[C@]3(C)c4cocc4CC[C@@H]23)[C@@]2(C)CCCC(C)(C)[C@H]12 [Compound 8, Nambiscalarane] | 16 µg/mL (≈ 28.8 µM) | 16 µg/mL (≈ 28.8 µM) | 8 µg/mL (≈ 14.4 µM) | 128 µg/mL (≈ 231 µM) | 27.5 ± 0.32 µM | 20.4 ± 2.07 µM | 26.6 ± 2.58 µM | 24.4 ± 2.06 µM | > 100 µM |  | 8 µg/mL (≈ 14.4 µM) |  |  |  |  |  |  |  |  |
| NC[C@H]1O[C@H](O[C@H]2[C@H](O)[C@@H](O[C@H]3O[C@H](CO)[C@@H](O)[C@H](N)[C@H]3O)[C@H](N)C[C@@H]2N)[C@H](O)[C@@H](O)[C@@H]1O [Kanamycin, reference compound] |  |  |  |  |  |  |  |  |  | 16 µg/mL (≈ 33 µM) | 8 µg/mL (≈ 16.5 µM) | 4 µg/mL (≈ 8.26 µM) |  | 2 µg/mL (≈ 4.13 µM) |  |  |  |  |  |
| N.N.[Cl][Pt][Cl] [cis-platin, reference compound] |  |  |  |  |  |  |  |  |  |  |  |  |  |  | 16.86 ± 0.03 µM | 5.3 ± 0.23 µM | 6.43 ± 0.13 µM | 4.93 ± 0.77 µM | > 100 µM |
